These results are taken from ChEMBL document CHEMBL5335835, “Terpenes and Terpenoids Conjugated with BODIPYs: An Overview of Biological and Chemical Properties” (J Nat Prod, 2024).

This assay deals with T1, Alpha-tocopherol transfer protein (Homo sapiens, UniProt P49638).
T1 sequence (P49638 whole entry): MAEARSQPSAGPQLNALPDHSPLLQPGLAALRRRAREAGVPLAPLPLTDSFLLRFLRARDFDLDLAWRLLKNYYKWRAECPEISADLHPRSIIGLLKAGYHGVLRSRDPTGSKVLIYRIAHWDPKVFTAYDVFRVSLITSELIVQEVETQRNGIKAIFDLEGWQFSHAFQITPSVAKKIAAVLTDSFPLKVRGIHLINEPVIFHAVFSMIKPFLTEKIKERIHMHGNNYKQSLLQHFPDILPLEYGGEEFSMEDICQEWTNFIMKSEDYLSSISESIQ
Kind of assay: Binding affinity to human alpha-TTP assessed as dissociation constant incubated for 25 to 40 mins by fluorescence based assay.

With `CC1=CC(C)=[N+]2C1=Cc1ccc(CCCCCCCC[C@]3(C)CCc4c(C)c(O)c(C)c(C)c4O3)n1[B-]2(F)F`, the Kd – broadly, a measure of binding affinity in units of concentration – is 94 nM.
